Experimental data from publication PMC3531872 (Chemical research in toxicology, 2011).
Like-named read-outs stand apart in the source and are kept apart here.

What was measured:
[1] = target: T1, Recombinant human P450 1A1 (Homo sapiens, UniProt P04798); experiment: N- and C-oxidation by recombinant human P450 1A1; assay type: in vitro ADME
T1 sequence (P04798 1-512): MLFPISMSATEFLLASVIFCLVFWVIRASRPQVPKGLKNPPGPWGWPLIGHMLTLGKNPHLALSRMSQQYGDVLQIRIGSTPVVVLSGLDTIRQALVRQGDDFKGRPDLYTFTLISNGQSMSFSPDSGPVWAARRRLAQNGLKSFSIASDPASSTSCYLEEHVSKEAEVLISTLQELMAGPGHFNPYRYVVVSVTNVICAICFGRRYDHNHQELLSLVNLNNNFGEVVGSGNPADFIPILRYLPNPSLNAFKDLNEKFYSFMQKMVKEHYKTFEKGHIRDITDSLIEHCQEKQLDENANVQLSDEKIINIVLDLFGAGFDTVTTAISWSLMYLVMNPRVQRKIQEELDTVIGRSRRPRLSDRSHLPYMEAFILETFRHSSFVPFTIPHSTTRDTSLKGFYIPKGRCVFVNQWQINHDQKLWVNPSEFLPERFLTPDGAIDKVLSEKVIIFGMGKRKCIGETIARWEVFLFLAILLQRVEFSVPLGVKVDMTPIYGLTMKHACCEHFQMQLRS

[2] = target: T2, Recombinant human P450 1B1 (Homo sapiens, UniProt Q16678); experiment: N- and C-oxidation by recombinant human P450 1B1; assay type: in vitro ADME
T2 sequence (Q16678 1-543): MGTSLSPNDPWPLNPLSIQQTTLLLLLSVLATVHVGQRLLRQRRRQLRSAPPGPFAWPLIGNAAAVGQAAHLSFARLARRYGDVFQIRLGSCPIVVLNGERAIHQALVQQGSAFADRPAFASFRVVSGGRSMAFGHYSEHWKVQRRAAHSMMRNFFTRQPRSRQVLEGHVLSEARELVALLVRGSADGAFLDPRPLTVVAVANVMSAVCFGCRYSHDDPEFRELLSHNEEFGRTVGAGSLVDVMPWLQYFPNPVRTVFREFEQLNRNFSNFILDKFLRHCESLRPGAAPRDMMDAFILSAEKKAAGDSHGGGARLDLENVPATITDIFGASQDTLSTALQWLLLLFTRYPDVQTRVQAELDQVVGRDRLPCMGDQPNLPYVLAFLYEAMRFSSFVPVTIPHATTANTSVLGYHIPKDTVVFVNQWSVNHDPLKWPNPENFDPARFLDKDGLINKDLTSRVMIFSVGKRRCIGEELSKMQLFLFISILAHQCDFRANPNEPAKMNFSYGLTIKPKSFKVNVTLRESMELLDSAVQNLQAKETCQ

[3] = Plasma clearance of 14C radioactivity in mice; assay type: in vivo, female C57BL/6J mice
[4] = system: liver DNA; conditions: male C57BL/6 mice; 24 h post-treatment; 5 mg/kg; cited from earlier work
[5] = system: rat liver DNA; conditions: 24 h following oral dosing with MeIQx (10 mg/kg); cited from earlier work
[6] = system: liver, pancreas and colorectal DNA; experiment: In vivo DNA binding
[7] = N- and C-oxidation with mouse liver microsomes; assay type: in vitro ADME, female C57BL/6J mice; conditions: female, C57BL/6J, 200 μM, pH 7.6
[8] = N- and C-oxidation with human liver microsomes; assay type: in vitro ADME; conditions: 200 μM, pH 7.6
[9] = system: liver, pancreas and colorectal DNA; conditions: female, C57BL/6J, mouse, in vivo
[10] = system: mouse liver DNA; conditions: in vivo
[11] = system: S. typhimurium tester strain TA98; conditions: cited from earlier work
[12] = system: S. typhimurium strain YG1024; conditions: cited from earlier work

Cc1cnc2ccc3c(nc(N)n3C)c2n1 [MeIQx, 2-Amino-3,8-dimethylimidazo[4,5-f]quinoxaline]
N-oxidation by P450 1A1 (in words) ([1]; recombinant human P450 1A1): low to not detectable | N-oxidation by P450 1B1 (in words) ([2]; recombinant human P450 1B1): low to not detectable | radioactivity cleared from plasma within 48 h ([3]; gavage, 14C-MeIgQx 9.68 mg/kg or 14C-MeIQx 2.13 mg/kg): greater than 95% | time of peak plasma levels in radioactivity ([3]; gavage, 14C-MeIgQx 9.68 mg/kg or 14C-MeIQx 2.13 mg/kg, time points 4, 24, 48 h): 4 h | [14C]-MeIQx bound to liver DNA [4]: about 20 adducts per 10^8 nucleotides | dA-N^6-MeIQx adduct level relative to dG-C8-MeIQx [5]: ~ 5% | dG-N^2-MeIQx adduct level relative to dG-C8-MeIQx [5]: 30 - 50% | Covalent Binding Index, colon ([6]; Time 4 h): 113 ±119 (μ mol/mol dNp)/(mmol carcinogen/kg bw) | Covalent Binding Index, colon ([6]; Time 24 h): 10.4 ± 11.9 (μ mol/mol dNp)/(mmol carcinogen/kg bw) | Covalent Binding Index, colon ([6]; Time 48 h): 2.1 ± 0.9 (μ mol/mol dNp)/(mmol carcinogen/kg bw) | Covalent Binding Index, liver ([6]; Time 4 h): 27.7 ± 8.3 (μ mol/mol dNp)/(mmol carcinogen/kg bw) | Covalent Binding Index, liver ([6]; Time 24 h): 11.5 ± 7.7 (μ mol/mol dNp)/(mmol carcinogen/kg bw) | Covalent Binding Index, liver ([6]; Time 48 h): 20.5 ± 8.4 (μ mol/mol dNp)/(mmol carcinogen/kg bw) | Covalent Binding Index, pancreas ([6]; Time 4 h): 0.8 ± 0.2 (μ mol/mol dNp)/(mmol carcinogen/kg bw) | Covalent Binding Index, pancreas ([6]; Time 24 h): 0.2 ± 0.1 (μ mol/mol dNp)/(mmol carcinogen/kg bw) | Covalent Binding Index, pancreas ([6]; Time 48 h): 0.1 ± 0.1 (μ mol/mol dNp)/(mmol carcinogen/kg bw) | time of highest level of 14C isotope in colorectal DNA ([6]; colorectal DNA, time points 4, 24, 48 h): 4 h | 14C-isotope associated with liver DNA at 48 h, relative to 4 h ([6]; liver DNA, T 48 h vs 4 h): up to 74% | total [14C]-MeIQx-DNA adduct formation, based upon AMS measurements ([6]; liver, 24 h post treatment, 2.13 mg/kg by gavage): 11.4 ± 7.6 adducts per 10^8 nucleotides | CBI in liver at T4 and 24 h ([6]; liver, T4 and 24 h, range over both HAAs): 7 - 28 | 14C-isotope associated with pancreas DNA at 48 h, relative to 4 h ([6]; pancreas DNA, T 48 h vs 4 h): ≤ 25%

Cc1cnc2cc3nc(N)n(C)c3cc2n1 [MeIgQx, 2-Amino-1,7-dimethylimidazo[4,5-g]quinoxaline]
Estimated C-oxidation rate, HO-MeIg Qx formation [7]: 0.5 ± 0.2 nmol/min/mg microsomal protein | Estimated N-oxidation rate, HONH-MeIg Qx formation [7]: 0.3 ± 0.1 nmol/min/mg microsomal protein | Estimated C-oxidation rate, HO-MeIg Qx formation [8]: 0.1 ± 0.01 nmol/min/mg microsomal protein | Estimated N-oxidation rate, HONH-MeIg Qx formation [8]: 0.4 ± 0.02 nmol/min/mg microsomal protein | rate of N-oxidation [8]: 0.4 nmol/min/mg protein | Estimated C-oxidation rate, HO-MeIg Qx formation ([1]; human, 200 μM, pH 7.6): 6.9 ± 2.4 nmol/min/100 pmol P450 | Estimated N-oxidation rate, HONH-MeIg Qx formation ([1]; human, 200 μM, pH 7.6): 14.1 ± 4.9 nmol/min/100 pmol P450 | rate of MeIgQx N-oxidation by P450 1A1 relative to P450 1A2 ([1]; human, recombinant enzyme, 200 μM, pH 7.6): ~ 3 fold | Estimated C-oxidation rate, HO-MeIg Qx formation ([2]; human, 200 μM, pH 7.6): 2.5 ± 0.3 nmol/min/100 pmol P450 | Estimated N-oxidation rate, HONH-MeIg Qx formation ([2]; human, 200 μM, pH 7.6): 3.9 ± 0.6 nmol/min/100 pmol P450 | radioactivity cleared from plasma within 48 h ([3]; female, C57BL/6J, mouse, in vivo, 48 h): greater than 95% | CBI in liver at T4 and 24 h [9]: 7 - 28 | time of highest level of 14C isotope in colorectal DNA [9]: 24 h | Covalent Binding Index, colon ([9]; 4 h): 12.0 ± 6.5 (μ mol/mol dNp)/(mmol carcinogen/kg bw) | Covalent Binding Index, liver ([9]; 4 h): 21.7 ± 8.6 (μ mol/mol dNp)/(mmol carcinogen/kg bw) | Covalent Binding Index, pancreas ([9]; 4 h): 2.4 ± 2.4 (μ mol/mol dNp)/(mmol carcinogen/kg bw) | 14C-isotope associated with liver DNA at 24 h, relative to 4 h ([9]; 24 h): 33% | 14C-isotope associated with pancreas DNA at 24 h, relative to 4 h ([9]; 24 h): 44% | Covalent Binding Index, colon ([9]; 24 h): 138 ±114 (μ mol/mol dNp)/(mmol carcinogen/kg bw) | Covalent Binding Index, liver ([9]; 24 h): 7.0 ± 3.2 (μ mol/mol dNp)/(mmol carcinogen/kg bw) | Covalent Binding Index, pancreas ([9]; 24 h): 1.1 ± 0.6 (μ mol/mol dNp)/(mmol carcinogen/kg bw) | 14C-isotope associated with liver DNA at 48 h, relative to 4 h ([9]; 48 h): 27% | 14C-isotope associated with pancreas DNA at 48 h, relative to 4 h ([9]; 48 h): 17% | Covalent Binding Index, colon ([9]; 48 h): 28.7 ± 18.5 (μ mol/mol dNp)/(mmol carcinogen/kg bw) | Covalent Binding Index, liver ([9]; 48 h): 5.8 ± 0.6 (μ mol/mol dNp)/(mmol carcinogen/kg bw) | Covalent Binding Index, pancreas ([9]; 48 h): 0.2 ± 0.2 (μ mol/mol dNp)/(mmol carcinogen/kg bw) | potential dA adduct of MeIgQx ([M+H]+ at m/z 463.2) [10]: no peaks were detected above background level | putative dG-C8-MeIgQx adduct, MS^2 or MS^3 scan stages [10]: not detected | potency in the Ames reversion assay, fold lower than MeIQx [11]: about 4,000 fold | genotoxic potency in YG1024 relative to TA98, fold greater [12]: 16 fold | mutagenic potency, fold weaker than PhIP [12]: about 10 fold

Cn1c(N)nc2ncc(-c3ccccc3)cc21 [PhIP, 2-amino-1-methyl-6-phenylimidazo[4,5-b]pyridine, reference compound]
mutagenic potency ([12]; S. typhimurium YG1024): 3,015 rev/μg
